The term GI50 denotes the concentration giving 50% growth inhibition.

The results in this text go back to ChEMBL document CHEMBL1201862, “PubChem BioAssay data set” (2004).

Test in all cases: DTP human tumour cell line panel, 48 h
Assay [1] has as its system DMS-273.
Assay [2] concerns XF498.
Assay [3] has as its system SNB-78.
Assay [4] relates to DMS-114.
The test system of assay [5] is LXFL 529.
Assay [6] relates to M19-MEL.
Assay [7] concerns DLD-1.
Assay [8] concerns HOP-18.
Assay [9] relates to RXF 631.

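Dose response: 5 concentrations. Exposure: 48 h. Format: 96-well plates. Endpoint: linear interpolation; highest concentration if not reached. The concentration for 50% growth inhibition is given as GI50.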 The source made the active and inactive calls. Rule as the data show it: active = GI50 up to about 1.1 µM and inactive = higher.

As for `COC(=O)c1c(C(=O)OC)c2cc(C(=O)c3ccccc3)ccn2c1Cl`, the GI50 was 27.6 µM (inactive) in [1]; 24.3 µM (inactive) in assay [2]; 50.9 µM (inactive) in assay [3]; 23.5 µM (inactive) in [4]; 30 µM (inactive) in assay [5]; 32.5 µM (inactive) in assay [6].
Consider `Cc1nc2c(o1)/C(=N\c1ccccc1)c1ccccc1C2=O`, for which the GI50 was 10.2 µM (inactive) in assay [1]; 4.02 µM (inactive) in [2]; 12.9 µM (inactive) in [7]; 6.81 µM (inactive) in assay [3]; 5.42 µM (inactive) in assay [8]; 3.3 µM (inactive) in [4]. Further, the GI50 in [5] was 11.9 µM (inactive); in [6], 1.86 µM (inactive).
Turning to `O=C1C=C[C@@]23CC1C(O)C[C@H]2C=Cc1ccccc13` (some centres undefined), the GI50 in assay [2] is > 100 µM (inactive); in assay [7], 45.6 µM (inactive); in [4] it was > 100 µM (inactive); in assay [5], > 100 µM (inactive); in assay [6] it was > 100 µM (inactive).
On to `CC1=CCC(O)C=CC(C)C(O)C(C)C=C(C)C(=O)c2c(O)c(C)cc3c2C(=O)C(N)=C(NC(=O)/C=C\C=C/C=CC(C)C(O)CC1=O)C3=O` (centres undefined), for which the GI50 in [1] was > 100 µM (inactive); in [2], > 100 µM (inactive); in assay [7], > 100 µM (inactive); in assay [3], 17.3 µM (inactive); in [4], > 100 µM (inactive); in [5], 27.8 µM (inactive). For the same compound, the GI50 in [6] is > 100 µM (inactive).
Consider `COc1cc([C@H]2c3cc4c(cc3[C@H](NCc3ccc(F)cc3)C3COC(=O)[C@H]32)OCO4)cc(OC)c1O` (some centres undefined), for which the GI50 in assay [1] is 1.3 µM (inactive); in [2], 2.37 µM (inactive); in assay [7], 7.03 µM (inactive); in assay [9] it was 2.32 µM (inactive); in [3], 24.7 µM (inactive); in assay [8] it was 26.3 µM (inactive). Besides, the figures for the GI50 in [4], in assay [5] and in [6] were 3.37 µM (inactive), 16.3 µM (inactive) and 7.59 µM (inactive), respectively.
For `O=C1c2ccccc2C(=O)C1(Cl)C1(S(=O)(=O)O)c2ccccc2-c2ccccc21`, the GI50 in assay [1], in assay [2], in assay [7], in assay [3], in assay [8] and in [4] was > 100 µM (inactive) throughout. In addition, the GI50 in [5] and in assay [6] was > 100 µM (inactive) throughout.
Take `COc1ccc2nc3cc(Cl)ccc3c(NCCCN(CCCl)CCCl)c2c1`: the concentration for 50% growth inhibition (GI50) in assay [1] is 0.0161 µM (active); in assay [2], < 0.01 µM (active); in [7], 0.233 µM (active); in [9] it was 0.0118 µM (active); in [3], 0.0845 µM (active); in assay [8], 2.64 µM (inactive). Moreover, the GI50 was < 0.01 µM (active) in [4], 0.0166 µM (active) in [5] and 0.0443 µM (active) in [6].
Regarding `CC(=O)c1ccc(NC(=O)C(=O)C(C(=O)c2ccc(Cl)c(Cl)c2)C2OC(=O)c3ccccc32)cc1` (centres undefined), the GI50 in assay [1] is 22.1 µM (inactive); in assay [2] it was 22.5 µM (inactive); in [7] it was 23.8 µM (inactive); in [3], 12.9 µM (inactive); in [8], 12.3 µM (inactive); in assay [4] it was 13.4 µM (inactive). The GI50 in assay [5] was 11 µM (inactive).
For `O=C(c1ccccc1)N1CCN2CCN=C(c3ccccc3)C21c1ccccc1` (centres undefined), the GI50 was > 100 µM (inactive) in [1]; 91 µM (inactive) in [7]; > 100 µM (inactive) in assay [3]; > 100 µM (inactive) in assay [8]; 30.5 µM (inactive) in assay [4]; 97.9 µM (inactive) in [5]. For the same compound, the GI50 in [6] was 81.7 µM (inactive).
Regarding `O=C(/C=C(\O)C(=O)O)/C=C(\O)c1ccc(Cl)cc1`, the GI50 in assay [1], in [2], in assay [7], in assay [3], in assay [8] and in assay [4] was > 100 µM (inactive) each time. The GI50 in [5] and in assay [6] was > 100 µM (inactive) in each case.
On to `O=P(CN1CCOCC1)(c1ccccc1)c1ccccc1`, for which the GI50 in assay [1], in assay [2], in assay [9], in [3], in [4] and in assay [5] was > 100 µM (inactive) each time. Also, the GI50 in assay [6] is > 100 µM (inactive).
Take `CCN(CC)C(=O)CNC(=O)OC(C)(C)C`: the GI50 in [1], in assay [7], in assay [3], in [4] and in assay [6] was > 100 µM (inactive) each time.
For `COc1ccc(C(=O)O)c2c(=O)c3ccccc3[nH]c12`, the GI50 in [1], in assay [2], in assay [3], in assay [5] and in [6] was > 100 µM (inactive) in each case.
As to `Cc1cnc2c(C)ccc([N+](=O)[O-])c2c1NCCCN(C)C`, the GI50 in [1] was > 100 µM (inactive); in [3], 43.7 µM (inactive); in assay [4], > 100 µM (inactive); in assay [6] it was > 100 µM (inactive).
`CC(=O)NC1=C(NCCN(C)C)C(=O)c2ccccc2C1=O`: the GI50 in [1] was 11.7 µM (inactive); in [2] it was 13.7 µM (inactive); in assay [7] it was 14.3 µM (inactive); in assay [3], 18.9 µM (inactive); in [5], 15 µM (inactive); in [6], 7.6 µM (inactive).
For `CCc1cc(C(=O)OC)cn1C(=N)c1ccc(Cl)cc1`, the GI50 in [1], in assay [2], in [7], in [3], in assay [8] and in assay [4] was > 100 µM (inactive) in each case. The GI50 in [5] and in assay [6] was > 100 µM (inactive) each time.
With `O=C1c2c(O)cccc2C(C(=O)CCCCCC(=O)C2c3cccc(O)c3C(=O)c3c(O)cccc32)c2cccc(O)c21`, the GI50 is 4.98 µM (inactive) in assay [1]; 0.46 µM (active) in [2]; 1.12 µM (inactive) in [7]; 1.26 µM (inactive) in assay [9]; 0.681 µM (active) in assay [3]; 1.16 µM (inactive) in assay [8]. The GI50 in assay [4] is 0.512 µM (active); in assay [5] it was 0.697 µM (active); in assay [6], 0.857 µM (active).
As to `COC(=O)C(=O)C(C(=O)C=C(C)C)C(=O)C(=O)Nc1cc(C(F)(F)F)ccc1Cl` (centres undefined), the GI50 was 28.7 µM (inactive) in assay [1]; > 100 µM (inactive) in [2]; > 100 µM (inactive) in assay [7]; > 100 µM (inactive) in assay [9]; > 100 µM (inactive) in [3]; > 100 µM (inactive) in [8]. For the same compound, the GI50 in [4] and in [5] was > 100 µM (inactive) each time.
For `O=[N+]([O-])c1ccc(Sc2c3ccccc3nc3ccccc23)cc1`, the GI50 in assay [2], in [7], in [9], in assay [3], in [8] and in assay [5] was > 100 µM (inactive) each time. The GI50 in assay [6] is > 100 µM (inactive).
`CC(CN(C)C)C(=O)c1ccccc1` (centres undefined): the GI50 in assay [1] was > 100 µM (inactive); in assay [2] it was 21.3 µM (inactive); in assay [7] it was 8.97 µM (inactive); in [9] it was > 86.3 µM (inactive); in assay [3], 31 µM (inactive); in assay [8], > 100 µM (inactive). For the same compound, the figures for the GI50 in assay [4], in assay [5] and in [6] were 26.6 µM (inactive), 18 µM (inactive) and 19.1 µM (inactive), respectively.
`CC(=O)c1cccc(NC(=O)C(=O)Nn2c(N)nnc2N)c1`: the GI50 in assay [1], in [2], in assay [7], in assay [3], in [8] and in assay [4] was > 100 µM (inactive) in each case. Further, the GI50 in assay [5] and in assay [6] was > 100 µM (inactive) in each case.
`Cc1cc(N(CCC#N)CCC#N)ccc1/N=N/c1ccc(Br)cc1`: the GI50 in [1] was 17.8 µM (inactive); in assay [2], 2.22 µM (inactive); in assay [7], > 42.7 µM (inactive); in assay [9], 11.1 µM (inactive); in [3], 17.7 µM (inactive); in assay [8], > 35 µM (inactive). In addition, the GI50 in assay [4] was 20.2 µM (inactive); in assay [5], > 48.8 µM (inactive); in assay [6], > 53.3 µM (inactive).
Turning to `O=C1/C(=C/c2ccccc2)CN(C(=O)C(F)(F)F)C/C1=C\c1ccccc1`, the GI50 in [1] is 1.44 µM (inactive); in assay [7], 2.07 µM (inactive); in assay [3] it was 2.2 µM (inactive); in assay [8], 6.82 µM (inactive); in assay [4], 1.64 µM (inactive); in [5], 1.66 µM (inactive). For the same compound, in assay [6], the GI50 is 1.61 µM (inactive).
As to `C=CC1C(OC2OC(CO)C(O)C(O)C2O)OC=C(C(=O)OC)C1CC=O` (centres undefined), the GI50 in assay [7], in [9], in assay [3], in assay [8], in [5] and in assay [6] was > 100 µM (inactive) each time.
Regarding `COC1=C2C[C@H](O)C(C)C[C@@]2(OC)OC1=O` (some centres undefined), the GI50 in assay [1], in [2], in assay [7], in [9], in assay [3] and in [5] was > 100 µM (inactive) in each case. Also, the GI50 in assay [6] is > 100 µM (inactive).
